Biological target: T1, LXRα (Homo sapiens, UniProt Q13133)
T1 construct: human LXRalpha (amino acid 205-447); expressed in transfected cells; host or cells: U2/OS osteosarcoma cells electroporated with pSGGAL-LXRalpha (pSG5 vector)
T1 sequence (Q13133 205-447): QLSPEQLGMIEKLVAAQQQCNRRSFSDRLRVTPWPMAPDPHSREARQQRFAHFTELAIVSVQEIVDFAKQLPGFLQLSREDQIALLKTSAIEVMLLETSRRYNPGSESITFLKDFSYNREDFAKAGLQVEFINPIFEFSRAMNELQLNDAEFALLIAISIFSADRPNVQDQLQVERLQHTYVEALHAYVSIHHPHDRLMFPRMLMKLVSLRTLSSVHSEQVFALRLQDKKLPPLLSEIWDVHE
Assay: Transactivation (reporter gene) assay in U2/OS cells
Format: cell-based
Details: GAL4-LXRalpha LBD luciferase reporter, U2/OS osteosarcoma cells, 48 h
Procedure: Expression vectors were prepared by inserting the ligand binding domain cDNA (complementary DNA) of human LXRalpha (amino acid 205-447) and LXRbeta (amino acid 216-461) in frame with, 3′ to the yeast GAL4 transcription factor DNA binding domain and the nuclear localization signal from the T-antigen of Polyoma Virus in the eucaryotic expression vector pSG5 (Stratagene). The resulting expression vectors pSGGAL-LXRalpha and pSGGAL-LXRbeta were used in cotransfection experiments together with the pGL3 luciferase reporter plasmid containing a minimal SV40 promoter (Promega) and five copies of the UAS GAL4 recognition site. 2.5 μg pSGGAL-LXRalpha or beta were mixed with […] pGL3 5xUAS and 22.5 μg pBluscript (Stratagene) in 0.95 mL ice cold PBS containing approx. 4-9 milj. U2/OS osteosarcoma cells. After a five minute incubation on ice the cell/DNA mixture was electroporated in 0.4 cm cuvettes at 960 μF, 230 V using a BioRad electroporator and diluted to 0.32 milj cells/mL in complete DMEM [Dulbecco's Modified Eagle Medium w/o phenol red, (Gibco 11880-028) including 10% FBS (Foetal Bovine Serum), 1% PEST (Penicillin Streptomycin), 20 mM Hepes, 2 mM L-Glutamine and 0.36% Glucose Gibco 31966-021] medium. […] Luciferase activity was measured as Luminescence in the Wallac Victor reader after 15 min. incubation at room temperature. […]

- EC50: 960 nM
SMILES: CCCCN1C(=S)C(Nc2ccc(OC(F)F)cc2)=C(c2ccccc2)S1(=O)=O [Example 1, 2-Butyl-4-{[4-(difluoromethoxy)phenyl]amino}-5-phenylisothiazole-3(2H)-thione 1,1-dioxide]

— patent US20080125396A1, “Derivatives of Isothiazol-3(2H)-Thione 1,1-Dioxides as Liver X Receptor Modulators” (AtraZeneca AB, priority 2005, published 2008)
